According to patent US20140249143A1, “Compounds And Methods For Enhancing Innate Immune Responses” (GlaxoSmithKline LLC, priority 2011, published 2014):

B1: IFNγ: type II interferon used as control treatment (100 U/ml) (protein, UniProt P01579 24-161, looked up)
Interferon gamma: QDPYVKEAENLKKYFNAGHSDVADNGTLFLGILKNWKEESDRKIMQSQIVSFYFKLFKNFKDDQSIQKSVETIKEDMNVKFFNSNKKKRDDFEKLTNYSVTDLNVQRKAIHELIQVMAELSPAAKTGKRKRSQMLFRG
B2: murine IFNα: murine IFNα2 administered intravenously to mice (30 ug/kg) as comparator (protein, UniProt P01573 24-190, looked up)
Interferon alpha-2: CDLPHTYNLRNKRALKVLAQMRRLPFLSCLKDRQDFGFPLEKVDNQQIQKAQAIPVLRDLTQQTLNLFTSKASSAAWNATLLDSFCNDLHQQLNDLQTCLMQQVGVQEPPLTQEDALLAVRKYFHRITVYLREKKHSPCAWEVVRAEVWRALSSSVNLLPRLSEEKE

Tests used:
[1] = test system: HCV genotype 1b subgenomic replicon; assay: Anti-Hepatitis C replicon assay, genotype 1b (luciferase); format: cell-based; details: Hepatitis C virus; luciferase activity measured 48 hours later; read-out: HCV Genotype 1B Replicon pEC50 (converted)
Method: (§1) Compounds were assayed for activity against HCV using the genotype 1a and 1b subgenomic replicon model systems. Stable cell lines bearing the genotype 1a and 1b replicons were used for screening of compounds. Both replicons are bicistonic and contain the firefly luciferase gene. The ET cell line is stably transfected with RNA transcripts harboring a I389luc-ubi-neo/NS3-3′/ET replicon with firefly luciferase-ubiquitin-neomycin phosphotransferase fusion protein and EMCV-IRES driven NS3-5B polyprotein containing the cell culture adaptive mutations (E1202G; T1280I; K1846T) (Krieger at al, 2001 and unpublished). The genotype 1a replicon is a stable cell line licensed from Apath LLC, modified to contain the firefly luciferase gene. The cells were grown in DMEM, supplemented with 10% fetal calf serum, 2 mM Glutamine, Penicillin (100 IU/mL)/Streptomycin (100 μg/mL), 1× nonessential amino acids, and 250-500 μg/mL G418 (“Geneticin”). They were all available through Life Technologies (Bethesda, Md.). The cells were plated at 0.5×10^4 cells/well in 384 well plates containing compounds. The final concentration of compounds ranged between 0.03 pM to 50 μm and the final DMSO concentration of 0.5-1%.
(§2) Luciferase activity was measured 48 hours later by adding a Steady glo (Promega, Madison, Wis.). Percent inhibition of replication data was plotted relative to no compound control. Under the same condition, cytotoxicity of the compounds was determined using cell titer glo (Promega, Madison, Wis.). IC50s were determined from a 10 point dose response curve using 3-4-fold serial dilution for each compound, which spans a concentration range>1000 fold. BioAssay determines the level of inhibition for each compound by normalizing cross-talk corrected plate values against the negative (low or background, cells with no compound present) and positive (high DMSO, no cells) controls to determine Percent Inhibition:
(§3) These normalized values are exported to IC50 where they are plotted against the molar compound concentrations using the standard four parameter logistic equation: […]

[2] = test system: ISG56 (Interferon-Stimulated Gene 56) promoter ISRE; assay: ISG56 luciferase reporter assay in HEK 293 cells; format: cell-based; details: Homo sapiens, HEK293; HEK 293 reporter, 24 hours; 100% = small molecule control test compound; read-out: ISG56 (Average Max Response) %
Method: Compounds of the present invention were tested against a HEK (Human Embryonic Kidney) 293 cell line that was stably transfected with a firefly luciferase reporter gene under the control of the ISG56 (Interferon-Stimulated Gene 56) promoter ISRE (Interferon-Stimulated Response Element). While the ISRE is in the opposite orientation of the wild type promoter, literature^1 cites that the response elements are pallindromic and function properly in either orientation. ^1Reich, N., Evans, B., Levy, D., Fahey, D., Knight, E., Damell, J. E. (1987) Interferon-induced transcription of a gene encoding a 15-kDa protein depends on an upstream enhancer element. See, Proc. Natl. Acad. Sci. 84, (6394-6398).
In preparation for the assay, test compounds were serially diluted 3-fold in DMSO from a typical top concentration of 5 mM and plated at 0.2 μL in a 384-well, polystyrene, tissue culture treated plate with lid (Greiner Bio-One North America, Inc., Monroe, N.C.) to generate 11-point dose response curves in the assay. Low control wells (0% response) contained 0.2 μL of DMSO alone, and high control wells (100% response) contained 0.2 μL of a small molecule control test compound.
Frozen stocks of the transfected HEK 293 cells were washed and recovered in DMEM I Ham's F-12 media (Invitrogen Corporation, Carlsbad, Calif.) supplemented with 10% v/v qualified Australian fetal bovine serum (FBS) (Invitrogen Corporation, Carlsbad, Calif.), 1× GlutaMAX™ (Invitrogen Corporation, Carlsbad, Calif.), 1×MEM non-essential amino acids (NEAA) (Invitrogen Corporation, Carlsbad, Calif.) and 500 μg/ml Geneticin® (Invitrogen Corporation, Carlsbad, Calif.). The cells were diluted to 500,000 cells/mL in the supplemented DMEM/Ham's F-12 media, and 20 μL of the cell suspension were added to each well of the previously prepared 384-well compound plate, resulting in 10,000 cells/well. The plate, with lid, were placed in a 37° C., 5% CO2 humidified incubator for 24 hours.
Following incubation, the plates were removed and placed on the bench top without lids to equilibrate to room temperature for 30 minutes. Steady-Glo® (Promega Corporation, Madison, Wis.) was prepared according to the manufacturer's instructions, and 10 μL were added to each plate well. After a twenty minute incubation at room temperature, luminescence was read on a ViewLux™ (PerkinElmer Inc., Waltham, Mass.).
The data for dose responses were plotted as % activation versus compound concentration following normalization using the formula 100*((U−C1)/(C2−C1)), where U was the unknown value, C1 was the average of the low (0% response) control wells and C2 was the average of the high (100% response) control wells. Curve fitting was performed with the equation y=A+((B−A)/(1+(10^x/10^C)^D)), where A was the minimum response, B was the maximum response, C was the log(EC50) and D was the Hill slope. The results for each test compound were recorded as pEC50 values (—C in the above equation) and as max response values at a given concentration.

[3] = test system: reconstructed human epidermis (RHE) keratinocytes; assay: JAK/STAT induction in reconstructed human epidermis (western blot, real-time PCR); format: cell-based; details: 10 μM (IFN-alpha 100 U/mL), 6 and 72 hrs
Method: First, reconstructed human epidermis (“RHE”) consisting of cultured human keratinocyte cells were incubated in triplicate with media containing either the media alone, media+0.1% DMSO, media containing 10 μM of several putative JAK/STAT activator compounds described herein in Tables 1 and 2 (Example 1, Example 2, Example 11, and compound no. 89 (as a negative control)), or media containing 100 U/mL of a positive control Interferon-alpha (IFN-alpha) recombinant protein at 37° C. in a humidified atmosphere containing 5% CO2, for 6 and 72 hours.
At the end of the incubation period, the RHE tissues were cut into two sections. One section was ¼ of the total size and the second section was […].

[4] = test system: HCV genotype 1a subgenomic replicon; assay: Anti-Hepatitis C replicon assay, genotype 1a (luciferase); format: cell-based; details: Hepatitis C virus; luciferase activity measured 48 hours later; read-out: HCV Genotype 1A Replicon pEC50 (converted)
Method: as §1, §2, §3

human JAK1 = target: T1, human JAK1 (Homo sapiens, UniProt P23458); assay: JAK1 reconstitution in U4A and 2fGH cells (phosphor-STAT1 western blot, Taqman mRNA); format: cell-based; details: 100 U/ml
T1 construct: expressed in transfected cells; host or cells: U4A cells (JAK1-deficient derivative of the human fibroblast line 2fGH), transduced with a baculovirus mammalian expression system
T1 sequence (P23458 whole entry): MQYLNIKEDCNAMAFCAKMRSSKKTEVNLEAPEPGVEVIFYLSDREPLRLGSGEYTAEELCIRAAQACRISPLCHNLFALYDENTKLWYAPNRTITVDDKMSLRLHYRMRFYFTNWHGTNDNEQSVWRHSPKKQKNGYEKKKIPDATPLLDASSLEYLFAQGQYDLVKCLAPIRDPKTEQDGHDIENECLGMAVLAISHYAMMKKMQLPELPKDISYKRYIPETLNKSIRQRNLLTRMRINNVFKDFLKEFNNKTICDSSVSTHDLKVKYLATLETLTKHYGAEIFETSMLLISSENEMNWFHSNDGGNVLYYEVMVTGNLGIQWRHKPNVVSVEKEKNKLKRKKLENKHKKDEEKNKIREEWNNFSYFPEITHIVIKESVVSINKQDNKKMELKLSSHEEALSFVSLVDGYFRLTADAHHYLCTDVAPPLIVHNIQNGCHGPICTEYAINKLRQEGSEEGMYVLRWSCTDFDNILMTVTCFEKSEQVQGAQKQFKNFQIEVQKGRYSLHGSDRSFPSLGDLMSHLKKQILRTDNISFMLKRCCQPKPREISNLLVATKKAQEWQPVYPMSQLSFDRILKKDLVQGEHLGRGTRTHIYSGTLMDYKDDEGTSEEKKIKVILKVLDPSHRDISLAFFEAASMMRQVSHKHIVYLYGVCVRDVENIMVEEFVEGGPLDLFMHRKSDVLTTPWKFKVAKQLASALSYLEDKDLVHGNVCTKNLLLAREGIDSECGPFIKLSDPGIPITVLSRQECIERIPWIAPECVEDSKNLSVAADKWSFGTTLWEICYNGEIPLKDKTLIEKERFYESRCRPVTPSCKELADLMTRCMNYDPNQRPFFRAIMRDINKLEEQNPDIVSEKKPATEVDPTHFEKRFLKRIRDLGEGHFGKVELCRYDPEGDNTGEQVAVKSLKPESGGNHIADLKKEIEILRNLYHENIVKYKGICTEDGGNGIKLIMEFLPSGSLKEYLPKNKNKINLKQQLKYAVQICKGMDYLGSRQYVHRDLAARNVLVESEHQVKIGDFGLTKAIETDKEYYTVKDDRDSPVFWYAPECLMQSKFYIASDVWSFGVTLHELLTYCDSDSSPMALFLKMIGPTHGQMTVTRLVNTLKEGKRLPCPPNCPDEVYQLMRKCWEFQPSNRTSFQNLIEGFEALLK
Method: 2fGH and U4A cells were obtained from the Cleveland Clinic. 2fGH is a human fibroblast cell line and U4A cell line is a derivative 2fGH harboring a defect in JAK1 expression (Muller, et al., Nature 366, 129-135 (1993)). Green fluoroscent protein (GFP) or human JAK1 was transduced in U4A cells by baculovirus mammalian expression system. After 24 hours post transduction, the cells were treated with DMSO, Example 1 (10 μM), IFNα (100 U/ml), IFNβ (100 U/ml), or IFNγ (100 U/ml). Untransduced U4A cells and 2fGH cells were included as controls for 6 or 18 hours. The cells were harvested at indicated time points and used for detecting phosphor-STAT1 by western blot (FIG. 10, panel A) or for mRNA analysis by Taqman quantitation (FIG. 10, panel B).
The total cell lysates were analyzed on a 4-20% SDS-PAGE gradient gel and followed by immunoblotting using anti-phopho STAT1 antibody (Cell Signaling). The level of actin was monitored as a loading control. The bands were visualized by the alkaline phosphatase activity conjugated with the secondary antibody (Promega) using ProtoBlot II AP system (Promega).
(§4) Gene expression was measured using TaqMan Fast Universal PCR Master Mix (Applied Biosystems) and gene specific probes and murine primers in HT7900 FAST System (Invitrogen). As housekeeping genes, actin and GAPDH were used for normalization. Data was calculated by the ΔΔCt method and fold change determined compared to non-treated control samples.

ISGs and cytokines mRNA = assay: Induction of ISGs in mice in vivo; design: species or system Balb/c mice; details: Example 1 oral 300 mg/kg; murine IFNα2 30 ug/kg intravenously
Method: Naive Balb/c mice were purchased from Charles River Laboratories (Wilmington, Mass.) and administered with murine IFNα2 (30 ug/kg) intravenously or administered with oral Example 1 (300 mg/kg in 30/70% solutol/polyethylene glycol 400). The mice were then euthanized by CO2 inhalation at 0.5, 2, 6, 8, and 24 hours for sample collection. Four mice per dose group were tested.
For RNA isolation, the blood was collected in an RNAprotect™ tube (Qiagen) and processed with RNeasy Protect™ animal blood kit (Qiagen) according to the manufacturer's protocol. To preserve RNA, 30-200 mg of tissue pieces were stored in RNAlater™ solution (Invitrogen) until use. For RNA isolation, the thawed tissues were homogenized using a TissueLyser™ system (Qiagen) and processed with RNeasy 96 Universal Tissue Kit™ (Qiagen) according to the manufacturer's protocol. To remove DNA contamination, on-plate DNase digestion was included during the RNA purification.
as §4, with “For real time RT-PCR, cDNA was made using High Capacity cDNA Reverse Transcription Kit™ (Applied Biosystems). Gene” for “Gene”, “Mix™” for “Mix”, “System™” for “System”

Row | Molecule | EC50 [1] | Emax [2] | Stat1 phosphorylation (western blot) [3] | EC50 [4] | expression of CXCL9 in 2fGH cells (human JAK1) | up-regulation of ISGs at 24 hours (ISGs and cytokines mRNA)
1 | FC(F)(F)c1cc(C2CCCC2)nc2c1ccc1nc(-c3nnco3)cn12 [Compound 2, 2-[2-cyclopentyl-4-(trifluoromethyl)imidazo[1,2-a]1,8-naphthyridin-8-yl]-1,3,4-oxadiazole] | 251 nM | 31% | Stat1 phosphorylation | 50.1 nM | – | –
2 | FC(F)(F)c1cc(C(F)(F)F)c2ccc3cc(-c4nnco4)[nH]c3c2n1 [Compound 15, 2-[6,8-bis(trifluoromethyl)-1H-pyrrolo[3,2-h]quinolin-2-yl]-1,3,4-oxadiazole] | 1000 nM | 63.5% | – | 398 nM | – | –
3 | FC(F)(F)c1cc(C(F)(F)F)c2ccc3[nH]c(-c4cnco4)nc3c2n1 [Compound 28, 5-[6,8-bis(trifluoromethyl)-3H-imidazo[4,5-h]quinolin-2-yl]-1,3-oxazole] | 7940 nM | 11.5% | – | 10000 nM | – | –
4 | FC(F)(F)c1cc(C(F)(F)F)c2ccc3nc(-c4cnco4)cn3c2n1 [Compound 4, 5-[2,4-bis(trifluoromethyl)imidazo[1,2-a]1,8-naphthyridin-8-yl]-1,3-oxazole] | 398 nM | 178% | – | 126 nM | – | –
5 | Cc1cc(C)c2ccc3nc(-c4nnco4)cn3c2n1 [Compound 26, 2-{2,4-dimethylimidazo[1,2-a]1,8-naphthyridin-8-yl}-1,3,4-oxadiazole] | 5010 nM | 8% | – | 6310 nM | – | –
6 | FC(F)(F)c1cc(C(F)(F)F)c2ccc3nc(-c4ccco4)cn3c2n1 [Compound 25, 8-(furan-2-yl)-2,4-bis(trifluoromethyl)imidazo[1,2-a]1,8-naphthyridine] | 3160 nM | 6.5% | – | 3980 nM | – | –
7 | FC(F)(F)c1cc(C(F)(F)F)c2ccc3nc(-c4nnco4)cn3c2c1 [Compound 24, 2-[6,8-bis(trifluoromethyl)imidazo[1,2-a]quinolin-2-yl]-1,3,4-oxadiazole] | 3160 nM | 5.75% | – | 631 nM | – | –
8 | B1 | – | – | – | – | only observed with IFNγ treatment | –
9 | B2 | – | – | – | – | – | evidently diminished
